Measured values from ChEMBL document CHEMBL1201861, “Genomics of Drug Sensitity in Cancer screening data, Wellcome Trust Sanger Institute”.
Values joined by “and” are separate entries in the source; they are usually repeats but may differ in a detail not shown here. Equal entries are not always repeated.

Assays:
Experiment in all cases: cells
[1] = test system: CP66-MEL; assay type: functional, cell-based, Homo sapiens;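 also: growth inhibition of CP66-MEL cells determined in a cell viability assay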
Description: SANGER: Inhibition of human CP66-MEL cell growth in a cell viability assay.

[2] = test system: Calu-3; assay type: functional, cell-based, Homo sapiens;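 also: growth inhibition of human Calu-3 cells, determined with a cell viability assay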
Description: SANGER: Inhibition of human Calu-3 cell growth in a cell viability assay.

[3] = test system: DK-MG; assay type: functional, cell-based, Homo sapiens;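 also: growth inhibition of DK-MG cells, read out with a cell viability assay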
Description: SANGER: Inhibition of human DK-MG cell growth in a cell viability assay.

[4] = test system: Daoy; assay type: functional, cell-based, Homo sapiens;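 also: daoy cell growth inhibition, read out as cell viability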
Description: SANGER: Inhibition of human Daoy cell growth in a cell viability assay.

[5] = test system: EC-GI-10; assay type: functional, cell-based, Homo sapiens
Description: SANGER: Inhibition of human EC-GI-10 cell growth in a cell viability assay.

[6] = test system: EGI-1; assay type: functional, cell-based, Homo sapiens;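 also: cell viability readout used to gauge growth inhibition of EGI-1 cells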
Description: SANGER: Inhibition of human EGI-1 cell growth in a cell viability assay.

[7] = test system: ES1; assay type: functional, cell-based, Homo sapiens;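 also: growth inhibition of ES1 cells, read out with a cell viability assay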
Description: SANGER: Inhibition of human ES1 cell growth in a cell viability assay.

[8] = test system: ES3; assay type: functional, cell-based, Homo sapiens;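 also: growth inhibition of ES3 cells, read out with a cell viability assay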
Description: SANGER: Inhibition of human ES3 cell growth in a cell viability assay.

[9] = test system: ES8; assay type: functional, cell-based, Homo sapiens;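 also: growth inhibition of human ES8 cells, read out with a cell viability assay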
Description: SANGER: Inhibition of human ES8 cell growth in a cell viability assay.

[10] = test system: ESS-1; assay type: functional, cell-based, Homo sapiens;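 also: growth inhibition of human ESS-1 cells, read out by a cell viability assay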
Description: SANGER: Inhibition of human ESS-1 cell growth in a cell viability assay.

[11] = test system: EW-18; assay type: functional, cell-based; settings: Homo sapiens;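 also: growth inhibition of EW-18 cells, read out by a cell viability assay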
Description: SANGER: Inhibition of human EW-18 cell growth in a cell viability assay.

[12] = test system: HCE-T; assay type: functional, cell-based, Homo sapiens;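 also: cell viability assay read-out, reporting inhibition of HCE-T cell growth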
Description: SANGER: Inhibition of human HCE-T cell growth in a cell viability assay.

[13] = test system: HOP-62; assay type: functional, cell-based, Homo sapiens;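 also: cell growth inhibition determined with a viability assay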
Description: SANGER: Inhibition of human HOP-62 cell growth in a cell viability assay.

[14] = test system: HT1197; assay type: functional, cell-based, Homo sapiens, HT-1197
Description: SANGER: Inhibition of human HT-1197 cell growth in a cell viability assay.

[15] = test system: IST-MES1; assay type: functional, cell-based, Homo sapiens;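 also: growth inhibition of IST-MES1 cells, measured with a cell viability assay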
Description: SANGER: Inhibition of human IST-MES1 cell growth in a cell viability assay.

[16] = test system: JAR; assay type: functional, cell-based, Homo sapiens;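 also: growth inhibition of human JAR cells determined with a cell viability assay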
Description: SANGER: Inhibition of human JAR cell growth in a cell viability assay.

[17] = test system: KE-37; assay type: functional, cell-based; settings: Homo sapiens;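 also: growth inhibition of KE-37 cells, read out with a cell viability assay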
Description: SANGER: Inhibition of human KE-37 cell growth in a cell viability assay.

[18] = test system: KM-H2; assay type: functional, cell-based; settings: Homo sapiens;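 also: growth inhibition of KM-H2 cells, read out by a cell viability assay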
Description: SANGER: Inhibition of human KM-H2 cell growth in a cell viability assay.

[19] = test system: KP-4; assay type: functional, cell-based, Homo sapiens; settings: read-out: IC50;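 also: human KP-4 cells, with growth inhibition read out through a cell viability assay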
Description: SANGER: Inhibition of human KP-4 cell growth in a cell viability assay.

[20] = test system: KYSE-140; assay type: functional, cell-based, Homo sapiens;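 also: cell viability assay measuring growth inhibition in human KYSE-140 cells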
Description: SANGER: Inhibition of human KYSE-140 cell growth in a cell viability assay.

[21] = test system: LS-513; assay type: functional, cell-based, Homo sapiens
Description: SANGER: Inhibition of human LS-513 cell growth in a cell viability assay.

[22] = test system: MDA-MB-453; assay type: functional, cell-based, Homo sapiens
Description: SANGER: Inhibition of human MDA-MB-453 cell growth in a cell viability assay.

[23] = test system: MFE-280; assay type: functional, cell-based, Homo sapiens;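 also: growth inhibition of MFE-280 cells, determined with a cell viability readout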
Description: SANGER: Inhibition of human MFE-280 cell growth in a cell viability assay.

[24] = test system: MSTO-211H; assay type: functional, cell-based, Homo sapiens
Description: SANGER: Inhibition of human MSTO-211H cell growth in a cell viability assay.

[25] = test system: NB17; assay type: functional, cell-based; settings: Homo sapiens;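 also: growth inhibition of NB17 cells, read out with a cell viability assay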
Description: SANGER: Inhibition of human NB17 cell growth in a cell viability assay.

[26] = test system: NCI-H209; assay type: functional, cell-based; settings: Homo sapiens;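 also: growth inhibition of human NCI-H209 cells, measured by a cell viability assay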
Description: SANGER: Inhibition of human NCI-H209 cell growth in a cell viability assay.

[27] = test system: NCI-H441; assay type: functional, cell-based; settings: Homo sapiens;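 also: growth inhibition of NCI-H441 cells, read out with a cell viability assay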
Description: SANGER: Inhibition of human NCI-H441 cell growth in a cell viability assay.

[28] = test system: NMC-G1; assay type: functional, cell-based, Homo sapiens;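 also: growth inhibition of the NMC-G1 cell line, measured with a cell viability read-out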
Description: SANGER: Inhibition of human NMC-G1 cell growth in a cell viability assay.

[29] = test system: OVCAR-3; assay type: functional, cell-based, Homo sapiens;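 also: growth inhibition of human OVCAR-3 cells, determined by a cell viability assay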
Description: SANGER: Inhibition of human OVCAR-3 cell growth in a cell viability assay.

[30] = test system: P30-OHK; assay type: functional, cell-based; settings: Homo sapiens;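 also: growth inhibition of the P30-OHK cell line, read out with a cell viability assay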
Description: SANGER: Inhibition of human P30-OHK cell growth in a cell viability assay.

[31] = test system: PSN1; assay type: functional, cell-based, Homo sapiens;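 also: suppression of growth of human PSN1 cells, read out by a cell viability assay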
Description: SANGER: Inhibition of human PSN1 cell growth in a cell viability assay.

[32] = test system: RKO; assay type: functional, cell-based, Homo sapiens;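 also: growth inhibition of human RKO cells, read out with a cell viability assay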
Description: SANGER: Inhibition of human RKO cell growth in a cell viability assay.

[33] = test system: RPMI-8226; assay type: functional, cell-based; settings: Homo sapiens
Description: SANGER: Inhibition of human RPMI-8226 cell growth in a cell viability assay.

[34] = test system: SF-268; assay type: functional, cell-based, Homo sapiens;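 also: growth inhibition of SF-268 cells determined with a cell viability assay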
Description: SANGER: Inhibition of human SF268 cell growth in a cell viability assay.

[35] = test system: SF-295; assay type: functional, cell-based, Homo sapiens; settings: read-out: IC50;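 also: growth inhibition of SF-295 cells, read out with a cell viability assay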
Description: SANGER: Inhibition of human SF295 cell growth in a cell viability assay.

[36] = test system: SK-MEL-30; assay type: functional, cell-based; settings: Homo sapiens;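 also: growth inhibition of SK-MEL-30 cells, determined with a cell viability assay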
Description: SANGER: Inhibition of human SK-MEL-30 cell growth in a cell viability assay.

[37] = test system: SW1417; assay type: functional, cell-based, Homo sapiens;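 also: growth inhibition of human SW1417 cells, read out with a cell viability assay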
Description: SANGER: Inhibition of human SW1417 cell growth in a cell viability assay.

[38] = test system: SW1573; assay type: functional, cell-based, Homo sapiens;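 also: growth inhibition of SW1573 cells, read out with a cell viability assay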
Description: SANGER: Inhibition of human SW1573 cell growth in a cell viability assay.

[39] = test system: SW837; assay type: functional, cell-based, Homo sapiens;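 also: growth inhibition of SW837 cells, determined with a cell viability assay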
Description: SANGER: Inhibition of human SW837 cell growth in a cell viability assay.

[40] = test system: SW 954; assay type: functional, cell-based, Homo sapiens;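 also: growth inhibition of SW954 human cancer cells, read out as cell viability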
Description: SANGER: Inhibition of human SW954 cell growth in a cell viability assay.

[41] = test system: SW982; assay type: functional, cell-based; settings: Homo sapiens;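 also: growth inhibition of SW982 cells, read out with a cell viability assay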
Description: SANGER: Inhibition of human SW982 cell growth in a cell viability assay.

[42] = test system: ALL-PO; assay type: functional, cell-based; settings: Homo sapiens;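 also: growth inhibition of ALL-PO cells, read out by a cell viability assay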
Description: SANGER: Inhibition of human ALL-PO cell growth in a cell viability assay.

[43] = test system: AM-38; assay type: functional, cell-based, Homo sapiens;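 also: growth inhibition of AM-38 cells of human origin, read out by a cell viability assay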
Description: SANGER: Inhibition of human AM-38 cell growth in a cell viability assay.

[44] = test system: BEN; assay type: functional, cell-based, Homo sapiens;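 also: growth inhibition of the BEN cell line, read out with a cell viability assay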
Description: SANGER: Inhibition of human BEN cell growth in a cell viability assay.

[45] = test system: CAL-39; assay type: functional, cell-based, Homo sapiens;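 also: cell viability assay measuring growth inhibition of CAL-39 cells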
Description: SANGER: Inhibition of human CAL-39 cell growth in a cell viability assay.

[46] = test system: CAL-51; assay type: functional, cell-based, Homo sapiens;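 also: human CAL-51 cell line, growth inhibition read out via a cell viability assay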
Description: SANGER: Inhibition of human CAL-51 cell growth in a cell viability assay.

[47] = test system: TE-8; assay type: functional, cell-based, Homo sapiens;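 also: growth inhibition of TE-8 cells, measured with a cell viability readout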
Description: SANGER: Inhibition of human TE-8 cell growth in a cell viability assay.

[48] = test system: U-87 MG; assay type: functional, cell-based, U-87MG ATCC; settings: Homo sapiens;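 also: growth inhibition of the cells measured with a viability assay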
Description: SANGER: Inhibition of human U-87-MG cell growth in a cell viability assay.

[49] = test system: U-251; assay type: functional, cell-based, Homo sapiens;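 also: growth inhibition of human U-251 cells, read out through a cell viability assay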
Description: SANGER: Inhibition of human U251 cell growth in a cell viability assay.

[50] = test system: UMUC3; assay type: functional, cell-based, Homo sapiens;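 also: growth inhibition of human UM-UC-3 cells, read out with a cell viability assay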
Description: SANGER: Inhibition of human UM-UC-3 cell growth in a cell viability assay.

[51] = test system: YKG-1; assay type: functional, cell-based, Homo sapiens;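 also: cell growth inhibition, read out with a viability assay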
Description: SANGER: Inhibition of human YKG-1 cell growth in a cell viability assay.

[52] = test system: COR-L88; assay type: functional, cell-based; settings: Homo sapiens;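 also: growth inhibition of COR-L88 cells, read out with a cell viability assay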
Description: SANGER: Inhibition of human COR-L88 cell growth in a cell viability assay.

Measured: IC50

Cn1cc(C2=C(c3ccc(Cl)cc3Cl)C(=O)NC2=O)c2ccccc21 [SB-216763]
> 10 µM: [1]; Homo sapiens, CP66-MEL | [2]; Homo sapiens, Calu-3 | [3]; Homo sapiens, DK-MG | [4]; Homo sapiens, Daoy | [5]; Homo sapiens, EC-GI-10 | [6]; Homo sapiens, EGI-1 | [7]; Homo sapiens, ES1 | [8]; Homo sapiens, ES3 | [9]; Homo sapiens, ES8 | [11] | [12]; Homo sapiens, HCE-T | [14]; Homo sapiens, HT1197 | [15]; Homo sapiens, IST-MES1 | [17] | [18] | [19]; Homo sapiens, KP-4 | [20]; Homo sapiens, KYSE-140 | [21]; Homo sapiens, LS-513 | [22]; Homo sapiens, MDA-MB-453 | [23]; Homo sapiens, MFE-280 | [24]; Homo sapiens, MSTO-211H | [25] | [26] | [27] | [28]; Homo sapiens, NMC-G1 | [29]; Homo sapiens, OVCAR-3 | [30] | [31]; Homo sapiens, PSN1 | [32]; Homo sapiens, RKO | [33] | [34]; Homo sapiens, SF-268 | [35]; Homo sapiens, SF-295 | [36] | [37]; Homo sapiens, SW1417 | [38]; Homo sapiens, SW1573 | [39]; Homo sapiens, SW837 | [40]; Homo sapiens, SW 954 | [41] | [42] | [43]; Homo sapiens, AM-38 | [44]; Homo sapiens, BEN | [45]; Homo sapiens, CAL-39 | [46]; Homo sapiens, CAL-51 | [47]; Homo sapiens, TE-8 | [48] | [49]; Homo sapiens, U-251 | [50]; Homo sapiens, UMUC3 | [51]; Homo sapiens, YKG-1
0.853 µM: [13]; Homo sapiens, HOP-62
9.6 µM: [10]; Homo sapiens, ESS-1
1.21 µM: [16]; Homo sapiens, JAR

Cc1cc([C@@H](C)Nc2ccccc2C(=O)O)c2nc(N3CCOCC3)cc(=O)n2c1 [AZD-6482]
> 5.12 µM and 2.33 µM: [22]; mda-mb-453
4.5 µM and > 5.12 µM: [40]; sw 954
1.07 µM: [30]
2.77 µM and > 5.12 µM: [35]; sf-295
0.679 µM and 3.92 µM: [29]; ovcar-3
2 µM and > 5.12 µM: [45]; cal-39
3.44 µM and > 5.12 µM: [2]; calu-3
3.06 µM: [32]; Homo sapiens, RKO
> 5.12 µM: [52] | [1]; Homo sapiens, CP66-MEL | [1]; cp66-mel | [3]; dk-mg | [4]; Homo sapiens, Daoy | [4]; daoy | [5]; ec-gi-10 | [6]; egi-1 | [7]; es1 | [8]; Homo sapiens, ES3 | [8]; es3 | [9]; es8 | [10]; Homo sapiens, ESS-1 | [10]; ess-1 | [11] | [13]; hop-62 | [14]; ht-1197 | [15]; ist-mes1 | [16]; jar | [17] | [18] | [19]; kp-4 | [20]; kyse-140 | [21]; Homo sapiens, LS-513 | [21]; ls-513 | [23]; mfe-280 | [24]; msto-211h | [25] | [26] | [27] | [28]; Homo sapiens, NMC-G1 | [28]; nmc-g1 | [31]; psn1 | [33] | [34]; sf-268 | [36] | [37]; sw1417 | [38]; sw1573 | [39]; sw837 | [42] | [43]; am-38 | [44]; ben | [46]; cal-51 | [47]; te-8 | [48] | [49]; u-251 | [50]; umuc3 | [51]; Homo sapiens, YKG-1 | [51]; ykg-1
3.19 µM: [32]; rko
> 5.12 µM and 2.09 µM: [12]; hce-t
